Data published in US20250064990A1, “METHODS OF SCREENING FOR VMAT2 INHIBITORS” (Neurocrine Biosciences, Inc., priority 2021, published 2025).

How the values were obtained:
[1] = NBI-750142 concentration in cynomolgus monkey plasma by LC-MS/MS; format: in vivo, cynomolgus monkeys (Macaca fascicularis); settings: for concentration at 30 min / concentration at 60 min / concentration at 90 min / concentration at 120 min / concentration at 150 min / concentration at 180 min / concentration at 1 min: cynomolgus monkey, intravenous
Experimental: During each scan, whole blood PK samples were collected (in K2 EDTA tubes) at pre-dose (−5 min), and post-dose at 1 (end of bolus), 30, 60 (just prior to [^18F]AV-133 radiopharmaceutical administration), 90, 120, 150, 180 (end of scan) minutes after test article administration. PK samples were approximately 1 mL each (8 mL total, including pre-dose sample). PK sample collection times were relative to start of NBI-750142 bolus administration.
NBI-750142 concentration in cynomolgus monkey plasma samples was analyzed using a qualified LC-MS/MS bioanalytical method. […] Plasma samples were processed using protein precipitation extraction with 0.1% formic acid in acetonitrile and the addition of stable deuterium isotope labeled internal standard NBI-750142-D6. Processed samples were chromatographically separated on a C18 column and coupled to a Sciex API 4000 triple quadrupole mass spectrometer.
The method used in this study was qualified for a range of 0.250 to 250 ng/mL based on the analysis of 100 μL of plasma by LC-MS-MS. Quantitation was performed using a weighted 1/×2 linear least squares regression analysis generated from calibration standards. The protein precipitation extraction procedure began with the addition of internal standard solution (20.0 μL of approximately 100 ng/mL deuterated NBI-750142-D6). After adding 400 μL of acetonitrile/formic acid (1000:1.00), the tubes were sealed, vortexed and centrifuged. Subsequently, 100 μL of the supernatant was transferred to a new plate containing 400 μL of water/formic acid (1000:1.00). […] A triple quadrupole mass spectrometer (Sciex API 4000) equipped with TurboIonSpray source was used in the positive ion mode. Quantitation was based on multiple reaction monitoring (MRM) of m/z transitions of NBI-750142 and NBI-750142-D6.

[2] = NBI-750142 plasma concentration in healthy subjects; format: in vivo; settings: human, 18 h post single oral dose, across cohorts, approximately, read-out: NBI-750142 plasma concentrations at T2
[3] = 0.026 mg/kg, GC786, 0.026 mg/kg i.v.
[4] = 0.084 mg/kg, EC865, 0.084 mg/kg i.v.
[5] = 0.26 mg/kg, GC786, 0.26 mg/kg i.v.
[6] = 0.26 mg/kg, LC206, 0.26 mg/kg i.v.
[7] = 0.52 mg/kg, EC865, 0.52 mg/kg i.v.
[8] = 0.78 mg/kg, GC786, 0.78 mg/kg i.v.

COc1cc2c(cc1OC)[C@H]1CN(C)[C@H](CC(C)(C)C)CN1CC2 [NBI-750142]
Mean ng/mL NBI-750142 Concentration during PET Scan (60-180 min) ([1]; EC865, 0.084 mg/kg i.v.): 6.4 ng/mL | Mean ng/mL NBI-750142 Concentration during PET Scan (60-180 min) ([1]; EC865, 0.52 mg/kg i.v.): 37.6 ng/mL | Mean ng/mL NBI-750142 Concentration during PET Scan (60-180 min) ([1]; GC786, 0.026 mg/kg i.v.): 2.9 ng/mL | ng/mL NBI-750142 at 1 min ([1]; GC786, 0.026 mg/kg i.v., BLQ = <0.250 ng/mL): BLQ | Mean ng/mL NBI-750142 Concentration during PET Scan (60-180 min) ([1]; GC786, 0.26 mg/kg i.v.): 12.3 ng/mL | Mean ng/mL NBI-750142 Concentration during PET Scan (60-180 min) ([1]; GC786, 0.78 mg/kg i.v.): 74.5 ng/mL | Mean ng/mL NBI-750142 Concentration during PET Scan (60-180 min) ([1]; LC206, 0.26 mg/kg i.v.): 35.7 ng/mL | concentration at 30 min [1, 3]: 2.31 ng/mL | concentration at 60 min [1, 3]: 2.24 ng/mL | concentration at 90 min [1, 3]: 2.56 ng/mL | concentration at 120 min [1, 3]: 2.69 ng/mL | concentration at 150 min [1, 3]: 3.69 ng/mL | concentration at 180 min [1, 3]: 3.1 ng/mL | concentration at 1 min [1, 4]: 108 ng/mL | concentration at 30 min [1, 4]: 7.42 ng/mL | concentration at 60 min [1, 4]: 6.04 ng/mL | concentration at 90 min [1, 4]: 5.91 ng/mL | concentration at 120 min [1, 4]: 5.85 ng/mL | concentration at 150 min [1, 4]: 7.34 ng/mL | concentration at 180 min [1, 4]: 7.07 ng/mL | concentration at 1 min [1, 5]: 102 ng/mL | concentration at 30 min [1, 5]: 18.4 ng/mL | concentration at 60 min [1, 5]: 10.6 ng/mL | concentration at 90 min [1, 5]: 6.85 ng/mL | concentration at 120 min [1, 5]: 13.4 ng/mL | concentration at 150 min [1, 5]: 15.2 ng/mL | concentration at 180 min [1, 5]: 15.3 ng/mL | concentration at 1 min [1, 6]: 119 ng/mL | concentration at 30 min [1, 6]: 31 ng/mL | concentration at 60 min [1, 6]: 26 ng/mL | concentration at 90 min [1, 6]: 38.3 ng/mL | concentration at 120 min [1, 6]: 41.1 ng/mL | concentration at 150 min [1, 6]: 37.7 ng/mL | concentration at 180 min [1, 6]: 35.2 ng/mL | concentration at 1 min [1, 7]: 295 ng/mL | concentration at 30 min [1, 7]: 45.1 ng/mL | concentration at 60 min [1, 7]: 36.9 ng/mL | concentration at 90 min [1, 7]: 35.3 ng/mL | concentration at 120 min [1, 7]: 36.2 ng/mL | concentration at 150 min [1, 7]: 38.4 ng/mL | concentration at 180 min [1, 7]: 41.3 ng/mL | concentration at 1 min [1, 8]: 186 ng/mL | concentration at 30 min [1, 8]: 63 ng/mL | concentration at 60 min [1, 8]: 65.2 ng/mL | concentration at 90 min [1, 8]: 69.9 ng/mL | concentration at 120 min [1, 8]: 75.1 ng/mL | concentration at 150 min [1, 8]: 76 ng/mL | concentration at 180 min [1, 8]: 86.5 ng/mL | concentration at 18 h [2]: 0.3 to 10 ng/mL
